Measurements from patent US6703404B2, “Tert -butyl-(7-methyl-imidazol [1,2-a]pyridin-3-yl)-amine derivatives” (Gruenenthal GmbH, priority 1999, dated 2004).
pIC50: −log10 of the molar value. Where a name gives a salt, the structure may show the parent alone.

Tests used:
NO synthase [1] = target: T1, NO synthase (Rattus norvegicus, UniProt P29476); assay: HTS-NOS assay (labelled arginine, filter plate); assay type: biochemical; set-up: from tissue; host or cells: rat cerebellum (20,000 g supernatant of homogenate); settings: 10 μm test substance; enzyme from rat cerebellum
Procedure: This assay enabled the percentage inhibition of NO synthase to be determined by measuring the NOS activity on the action of the active ingredient. NO synthase was mixed with radioactively labelled arginine and the active ingredient under suitable conditions. After terminating the NO-forming reaction at a predetermined time, the amount of unreacted arginine was determined directly or indirectly. Comparison of this amount with the amount of arginine remaining from a mixture of NOS and arginine without the addition of active ingredient but under conditions which were otherwise the same gave the % inhibition of NO synthase by the active ingredient tested. This assay was performed as follows:
(a) Incubation of NO synthase, with labelled arginine as a substrate, in a reaction vessel.
(b) Separation of the labelled arginine from any labelled citrulline which was formed as a product of the enzymatic reaction at a time at which the concentration of citrulline was increasing.
(c) Measuring the amount of arginine separated in each case.
Separation was effected through a filter plate membrane.
This NOS assay was particularly suitable for “High Throughput Screening” (HTS) on microtitration plates (MTPs).
In this HTS-NOS assay, radioactive arginine was used as the substrate. The assay volume can be selected within the range from […] depending on the type of microtitration plate (MTP). Cofactors and coenzymes were added depending on the enzyme source used. Batches were incubated in this microtitration plate (assay MTP) according to step (a) at room temperature, for between 5 and 60 minutes depending on the enzyme activity (units) employed. At the end of the incubation (step (a)) the plate was placed in a cell harvester which was fitted with an MTP comprising a cation exchange membrane filter base (filter MTP). All the batches from the assay MTP were transferred to this filter MTP and were filtered off under suction through a cation exchange filter plate comprising a paper filter containing phosphate groups. […] By means of this procedure, the remaining arginine substrate was bound to the cation exchanger, whilst the enzymatically formed radioactive citrulline was quantitatively removed by washing. After drying the filter MTP and adding a scintillation liquid, the bound arginine was counted in a scintillation counter. An uninhibited NOS reaction was manifested by a low level of radioactivity. An inhibited enzyme reaction meant that the radioactive arginine had not reacted, i.e. the filter contained a high level of radioactivity. […]
The contents of the assay MTP were subsequently transferred by means of a 96-well cell harvester into a 96-well cation exchanger MTP (filter MTP) and was filitered under suction. […] After a holding time of 1 hour, the plate was measured in a βcounter. […]

NO synthase [2] = target: T1, NO synthase; assay: Citrulline assay (Bredt and Snyder); assay type: biochemical
Procedure: This assay was performed as described by D. S. Bredt and S. H. Snyder (Proc. Natl. Acad. Sci. USA (1990), 87, 682-85).

Row | Molecule | HTS-NOS assay: %-inhibition (10 μm) (NO synthase [1]) [%] | pIC50 (NO synthase [2]) | further results
1 | Cc1cc(C)n2c(NC(C)(C)C)c(C3CCCCC3)nc2c1 [Example 5, tert-butyl-(2-cyclohexyl-5,7-dimethyl-imidazo[1,2-a]pyridin-3-yl)-amine] |  |  | inhibition at 10 µM (NO synthase [1]): 63%
2 | Cc1cc(C)n2c(NC(C)(C)C)c(-c3ccc([N+](=O)[O-])o3)nc2c1 [Example 9] | 59 |  | 
3 | Cc1ccn2c(NC(C)(C)C)c(-c3ccc(C(=O)O)s3)nc2c1 [Example 17, 5-(3-tert-butylamino-7-methyl-imidazo[1,2-a]pyridin-2-yl)-thiophen-12-carboxylic acid] | 61 |  | 
4 | Cc1cc(C)n2c(NC(C)(C)C)c(-c3ccco3)nc2c1 [Example 18, tert-butyl-(2-furan-2-yl-5,7-dimethyl-imidazo[1,2-a]pyridin-3-yl)amine hydrochloride] |  | 5.55 | 
5 | Cc1ccn2c(NC(C)(C)C)c(-c3ccccc3)nc2c1 [Example 19, tert-butyl-(7-methyl-2-phenylimidazo[1,2-a]pyridin-3-yl)amine hydrochloride] |  | 5.62 | 
6 | Cc1cc(C)n2c(NC(C)(C)C)c(C)nc2c1 [Example 20, tert-butyl-(2,5,7-trimethyl[1,2-a]pyridin-3-yl)amine hydrochloride] |  | 5.04 | 
7 | [5-(3-tert-butyl-7-methyl-imidazo[1,2-a]pyridin-2-yl)-furan-2-yl]-methanol [Example 10] | 52 |  | 
